Activity calls are given as the source filed them. The calls are words filed in the database; no cut-off is given here.
Legend:
[1] = tested on: Platelet-derived growth factor receptor alpha (Homo sapiens), P16234 [T674I]; assay: Inhibition of human PDGFRA T674I mutant at 0.1 uM relative to control
[2] = molecular target: T1, Receptor-type tyrosine-protein kinase FLT3 (Homo sapiens, UniProt P36888); assay: biochemical; assay type: cell-based, Sf9
T1 sequence (P36888 whole entry): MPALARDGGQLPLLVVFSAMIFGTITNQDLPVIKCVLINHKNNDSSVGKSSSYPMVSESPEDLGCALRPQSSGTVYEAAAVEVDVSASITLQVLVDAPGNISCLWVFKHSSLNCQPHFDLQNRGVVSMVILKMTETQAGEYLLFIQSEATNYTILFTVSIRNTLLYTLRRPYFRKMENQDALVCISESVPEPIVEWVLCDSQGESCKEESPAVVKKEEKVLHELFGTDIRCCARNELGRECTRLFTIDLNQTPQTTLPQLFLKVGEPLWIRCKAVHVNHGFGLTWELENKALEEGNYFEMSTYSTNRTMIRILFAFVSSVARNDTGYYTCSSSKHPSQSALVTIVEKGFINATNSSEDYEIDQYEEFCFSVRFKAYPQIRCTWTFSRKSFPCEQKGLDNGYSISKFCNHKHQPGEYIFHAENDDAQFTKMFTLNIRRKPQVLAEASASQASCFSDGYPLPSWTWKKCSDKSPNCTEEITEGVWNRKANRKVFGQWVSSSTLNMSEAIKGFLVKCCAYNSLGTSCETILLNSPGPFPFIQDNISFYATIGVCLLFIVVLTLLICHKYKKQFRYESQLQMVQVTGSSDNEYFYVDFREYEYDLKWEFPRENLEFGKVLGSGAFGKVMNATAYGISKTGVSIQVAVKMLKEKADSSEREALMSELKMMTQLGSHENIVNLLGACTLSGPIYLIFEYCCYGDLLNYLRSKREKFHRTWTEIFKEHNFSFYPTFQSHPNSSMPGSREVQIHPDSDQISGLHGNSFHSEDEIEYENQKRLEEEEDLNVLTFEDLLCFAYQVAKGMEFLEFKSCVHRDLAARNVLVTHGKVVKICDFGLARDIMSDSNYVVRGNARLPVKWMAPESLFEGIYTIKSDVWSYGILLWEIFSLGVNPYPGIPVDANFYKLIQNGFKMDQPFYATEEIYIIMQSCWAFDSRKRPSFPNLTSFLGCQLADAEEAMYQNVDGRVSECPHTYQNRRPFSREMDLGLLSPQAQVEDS
Description: Inhibition of wild type GST-tagged FLT3 kinase domain (Y567 to S993) (unknown origin) expressed in baculovirus infected insect Sf9 cells using Her2 peptide as substrate after 4 hrs by Kinase-Glo assay

[3] = molecular target: Macrophage colony-stimulating factor 1 receptor (Homo sapiens) (UniProt P07333); assay: Inhibition of human CSF1R at 0.1 uM relative to control
Sequence of Macrophage colony-stimulating factor 1 receptor (Homo sapiens) (P07333 whole entry): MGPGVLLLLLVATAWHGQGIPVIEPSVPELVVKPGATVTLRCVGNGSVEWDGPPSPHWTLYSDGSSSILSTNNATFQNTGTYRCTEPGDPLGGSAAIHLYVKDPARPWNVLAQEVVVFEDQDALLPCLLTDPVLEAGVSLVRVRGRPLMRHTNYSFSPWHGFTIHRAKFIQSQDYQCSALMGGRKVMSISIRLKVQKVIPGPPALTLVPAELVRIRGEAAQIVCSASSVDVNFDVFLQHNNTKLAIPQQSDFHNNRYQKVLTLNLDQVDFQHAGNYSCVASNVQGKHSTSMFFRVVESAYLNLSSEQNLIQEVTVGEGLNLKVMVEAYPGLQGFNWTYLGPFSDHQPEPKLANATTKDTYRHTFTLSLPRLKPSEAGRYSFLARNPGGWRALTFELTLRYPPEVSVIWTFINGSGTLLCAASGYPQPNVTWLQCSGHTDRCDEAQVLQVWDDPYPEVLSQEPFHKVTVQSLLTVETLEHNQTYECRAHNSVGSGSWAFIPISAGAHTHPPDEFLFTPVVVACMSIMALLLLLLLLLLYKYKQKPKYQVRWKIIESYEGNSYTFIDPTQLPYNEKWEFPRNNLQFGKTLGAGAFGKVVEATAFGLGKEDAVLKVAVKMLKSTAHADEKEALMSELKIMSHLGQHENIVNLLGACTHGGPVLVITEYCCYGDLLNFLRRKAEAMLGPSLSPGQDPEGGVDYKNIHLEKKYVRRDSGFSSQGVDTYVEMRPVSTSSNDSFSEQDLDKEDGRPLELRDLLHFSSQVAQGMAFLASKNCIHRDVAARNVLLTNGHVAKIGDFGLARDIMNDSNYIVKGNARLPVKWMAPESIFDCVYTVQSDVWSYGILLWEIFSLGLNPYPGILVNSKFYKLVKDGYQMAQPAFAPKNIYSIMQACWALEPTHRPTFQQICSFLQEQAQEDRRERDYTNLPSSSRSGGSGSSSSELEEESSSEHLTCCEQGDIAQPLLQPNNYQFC

[4] = molecular target: Receptor-type tyrosine-protein kinase FLT3 (Homo sapiens, UniProt P36888, D835Y); assay: Inhibition of FLT3 ITD D835Y mutant (unknown origin) phosphorylation expressed in HEK293T cells preincubated for 1 hr followed by FLT3 ligand addition for 5 mins by Western blot analysis; assay type: cell-based, HEK-293T
U-937 = assay: cells; assay type: functional; settings: Homo sapiens, U-937, 72 h
Description: Cytotoxicity against FLT3-deficient human U937 cells assessed as cell growth inhibition after 72 hrs by MTS assay

[5] = tested on: Platelet-derived growth factor receptor alpha (Homo sapiens), P16234 [D842V]; assay: Inhibition of human PDGFRA D842V mutant at 0.1 uM relative to control
[6] = molecular target: RAC-alpha serine/threonine-protein kinase (Homo sapiens) (UniProt P31749); assay: Inhibition of human AKT1 at 0.1 uM relative to control
[7] = Oral bioavailability in Sprague-Dawley rat at 10 mg/kg; assay type: ADME, organism-based; settings: in vivo
[8] = molecular target: Interleukin-1 receptor-associated kinase 4 (Homo sapiens) (UniProt Q9NWZ3); assay: Inhibition of human IRAK4 at 0.1 uM relative to control
Sequence of Interleukin-1 receptor-associated kinase 4 (Homo sapiens) (Q9NWZ3 whole entry): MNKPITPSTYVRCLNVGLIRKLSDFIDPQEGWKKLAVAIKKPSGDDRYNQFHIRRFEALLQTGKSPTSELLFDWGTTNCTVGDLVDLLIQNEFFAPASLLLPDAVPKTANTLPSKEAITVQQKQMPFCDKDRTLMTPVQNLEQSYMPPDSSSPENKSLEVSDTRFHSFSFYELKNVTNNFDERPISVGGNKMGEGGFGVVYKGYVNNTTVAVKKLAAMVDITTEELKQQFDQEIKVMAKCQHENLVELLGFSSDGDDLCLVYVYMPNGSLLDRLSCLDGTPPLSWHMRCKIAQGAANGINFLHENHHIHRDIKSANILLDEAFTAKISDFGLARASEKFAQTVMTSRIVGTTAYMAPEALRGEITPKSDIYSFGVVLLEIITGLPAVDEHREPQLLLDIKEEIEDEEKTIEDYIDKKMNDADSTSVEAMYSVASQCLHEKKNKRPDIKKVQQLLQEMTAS

[9] = molecular target: Platelet-derived growth factor receptor beta (Homo sapiens) (UniProt P09619); assay: Inhibition of human PDGFRbeta at 0.1 uM relative to control
Sequence of Platelet-derived growth factor receptor beta (Homo sapiens) (P09619 whole entry): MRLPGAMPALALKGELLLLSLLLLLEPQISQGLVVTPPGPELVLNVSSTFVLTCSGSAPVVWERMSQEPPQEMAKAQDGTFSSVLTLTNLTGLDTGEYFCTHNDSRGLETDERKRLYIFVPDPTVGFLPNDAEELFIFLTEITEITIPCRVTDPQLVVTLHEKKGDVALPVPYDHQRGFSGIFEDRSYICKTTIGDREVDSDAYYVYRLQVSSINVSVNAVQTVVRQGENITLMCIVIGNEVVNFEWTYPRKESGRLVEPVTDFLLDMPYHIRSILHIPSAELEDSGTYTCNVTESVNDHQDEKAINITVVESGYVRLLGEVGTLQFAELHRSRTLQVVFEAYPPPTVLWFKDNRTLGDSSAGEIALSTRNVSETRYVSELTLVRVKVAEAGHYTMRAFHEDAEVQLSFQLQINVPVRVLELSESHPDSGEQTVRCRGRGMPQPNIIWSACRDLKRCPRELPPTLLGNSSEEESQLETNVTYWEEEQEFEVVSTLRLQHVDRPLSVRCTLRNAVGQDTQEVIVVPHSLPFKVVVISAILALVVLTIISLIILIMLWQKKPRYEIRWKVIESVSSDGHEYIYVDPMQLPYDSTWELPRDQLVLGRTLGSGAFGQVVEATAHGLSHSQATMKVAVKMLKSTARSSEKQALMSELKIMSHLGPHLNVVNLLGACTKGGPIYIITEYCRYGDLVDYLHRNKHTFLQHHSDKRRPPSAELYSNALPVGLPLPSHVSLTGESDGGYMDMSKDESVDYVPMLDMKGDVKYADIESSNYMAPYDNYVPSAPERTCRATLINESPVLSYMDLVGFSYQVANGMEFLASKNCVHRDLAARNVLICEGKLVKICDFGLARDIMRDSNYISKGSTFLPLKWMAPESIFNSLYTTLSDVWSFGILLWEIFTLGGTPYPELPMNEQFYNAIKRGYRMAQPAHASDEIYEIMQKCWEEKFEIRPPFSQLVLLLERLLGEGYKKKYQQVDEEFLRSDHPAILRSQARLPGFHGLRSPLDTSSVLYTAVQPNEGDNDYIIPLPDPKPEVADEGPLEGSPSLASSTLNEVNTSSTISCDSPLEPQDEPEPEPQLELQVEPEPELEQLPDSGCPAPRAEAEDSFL

[10] = molecular target: Vascular endothelial growth factor receptor 3 (Homo sapiens) (UniProt P35916); assay: Inhibition of human FLT4 at 0.1 uM relative to control
Sequence of Vascular endothelial growth factor receptor 3 (Homo sapiens) (P35916 whole entry): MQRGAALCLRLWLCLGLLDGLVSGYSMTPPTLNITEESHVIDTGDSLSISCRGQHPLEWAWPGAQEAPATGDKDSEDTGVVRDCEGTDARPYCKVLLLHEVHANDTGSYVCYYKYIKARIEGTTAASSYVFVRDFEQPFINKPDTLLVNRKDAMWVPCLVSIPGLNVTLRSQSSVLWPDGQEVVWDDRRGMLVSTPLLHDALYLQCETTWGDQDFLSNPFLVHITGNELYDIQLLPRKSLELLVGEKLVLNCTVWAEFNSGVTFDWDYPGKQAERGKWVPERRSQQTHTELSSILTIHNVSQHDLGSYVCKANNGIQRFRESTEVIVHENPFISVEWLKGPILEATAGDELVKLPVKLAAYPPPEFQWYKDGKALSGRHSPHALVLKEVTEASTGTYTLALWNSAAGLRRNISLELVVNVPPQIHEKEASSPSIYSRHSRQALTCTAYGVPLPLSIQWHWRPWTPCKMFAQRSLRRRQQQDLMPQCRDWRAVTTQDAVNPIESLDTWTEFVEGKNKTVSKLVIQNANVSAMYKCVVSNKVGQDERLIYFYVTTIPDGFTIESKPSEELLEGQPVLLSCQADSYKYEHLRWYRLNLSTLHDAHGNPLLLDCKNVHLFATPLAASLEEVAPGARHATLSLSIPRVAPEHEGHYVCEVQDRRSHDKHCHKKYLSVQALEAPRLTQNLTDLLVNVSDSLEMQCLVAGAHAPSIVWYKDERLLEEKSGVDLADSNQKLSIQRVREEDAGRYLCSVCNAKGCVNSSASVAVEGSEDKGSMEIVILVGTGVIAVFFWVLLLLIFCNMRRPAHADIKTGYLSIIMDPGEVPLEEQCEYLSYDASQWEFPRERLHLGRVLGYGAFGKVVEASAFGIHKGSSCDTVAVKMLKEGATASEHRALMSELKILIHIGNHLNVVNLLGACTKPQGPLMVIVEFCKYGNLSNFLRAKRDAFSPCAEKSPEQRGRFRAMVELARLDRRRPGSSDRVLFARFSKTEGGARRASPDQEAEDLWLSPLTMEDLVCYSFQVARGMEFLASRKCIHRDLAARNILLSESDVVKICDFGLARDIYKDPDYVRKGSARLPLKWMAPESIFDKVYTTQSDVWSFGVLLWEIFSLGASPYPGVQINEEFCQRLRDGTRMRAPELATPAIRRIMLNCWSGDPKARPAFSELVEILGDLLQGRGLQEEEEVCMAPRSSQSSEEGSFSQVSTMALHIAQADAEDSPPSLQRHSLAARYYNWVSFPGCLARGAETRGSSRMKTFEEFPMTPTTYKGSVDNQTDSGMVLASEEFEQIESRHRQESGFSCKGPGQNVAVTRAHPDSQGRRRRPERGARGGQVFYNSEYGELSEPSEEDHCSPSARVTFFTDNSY

[11] = molecular target: Serine/threonine-protein kinase PLK1 (Homo sapiens) (UniProt P53350); assay: Inhibition of human PLK1 at 0.1 uM relative to control
[12] = molecular target: Bcr/Abl fusion protein (Homo sapiens) (UniProt P00519+P11274); settings: K562
Description: Inhibition of wild type BCR/ABL in FLT3 deficient human K562 cells assessed as cell growth inhibition after 72 hrs by MTS assay

[13] = molecular target: Aurora kinase A (Homo sapiens) (UniProt O14965); assay: Inhibition of human AURKA at 0.1 uM relative to control
Sequence of Aurora kinase A (Homo sapiens) (O14965 whole entry): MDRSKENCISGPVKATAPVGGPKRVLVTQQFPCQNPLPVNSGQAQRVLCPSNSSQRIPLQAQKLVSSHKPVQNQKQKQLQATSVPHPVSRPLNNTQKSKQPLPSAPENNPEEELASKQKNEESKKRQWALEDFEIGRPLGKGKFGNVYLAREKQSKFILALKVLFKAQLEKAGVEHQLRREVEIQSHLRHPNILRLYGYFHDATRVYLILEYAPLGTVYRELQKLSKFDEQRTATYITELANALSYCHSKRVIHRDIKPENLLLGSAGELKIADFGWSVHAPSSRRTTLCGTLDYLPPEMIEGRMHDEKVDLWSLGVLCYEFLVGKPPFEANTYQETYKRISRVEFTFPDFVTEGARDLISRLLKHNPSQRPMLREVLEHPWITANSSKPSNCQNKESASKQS

[14] = molecular target: Tyrosine-protein kinase BTK (Homo sapiens) (UniProt Q06187); assay: Inhibition of human BTK at 0.1 uM relative to control
Sequence of Tyrosine-protein kinase BTK (Homo sapiens) (Q06187 whole entry): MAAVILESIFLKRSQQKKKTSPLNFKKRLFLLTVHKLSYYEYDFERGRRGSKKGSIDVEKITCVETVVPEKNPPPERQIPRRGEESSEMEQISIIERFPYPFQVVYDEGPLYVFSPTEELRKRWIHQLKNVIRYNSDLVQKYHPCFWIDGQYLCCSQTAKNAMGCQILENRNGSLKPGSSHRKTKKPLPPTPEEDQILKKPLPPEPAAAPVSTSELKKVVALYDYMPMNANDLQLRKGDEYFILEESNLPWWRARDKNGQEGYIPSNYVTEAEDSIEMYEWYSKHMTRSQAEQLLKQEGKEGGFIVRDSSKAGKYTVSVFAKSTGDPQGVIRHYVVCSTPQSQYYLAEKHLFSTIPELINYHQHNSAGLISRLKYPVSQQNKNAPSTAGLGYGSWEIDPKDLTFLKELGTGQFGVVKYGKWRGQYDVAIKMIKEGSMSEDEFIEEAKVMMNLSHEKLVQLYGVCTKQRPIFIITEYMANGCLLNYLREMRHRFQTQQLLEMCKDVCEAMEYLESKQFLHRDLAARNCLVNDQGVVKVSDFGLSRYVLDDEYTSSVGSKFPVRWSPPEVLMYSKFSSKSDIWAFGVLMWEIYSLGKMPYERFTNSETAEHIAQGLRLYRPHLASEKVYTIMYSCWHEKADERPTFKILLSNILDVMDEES

[15] = molecular target: Receptor-type tyrosine-protein kinase FLT3 (Homo sapiens) (UniProt P36888); settings: RS4:11 cell
Description: Inhibition of wild type homozygous FLT3 in human RS4:11 cells assessed as cell growth inhibition after 72 hrs by MTS assay

[16] = molecular target: Non-receptor tyrosine-protein kinase TYK2 (Homo sapiens) (UniProt P29597); assay: Inhibition of human TYK2 at 0.1 uM relative to control
[17] = molecular target: T1, Receptor-type tyrosine-protein kinase FLT3; assay: Inhibition of wild type FLT3 (unknown origin) phosphorylation expressed in HEK293T cells preincubated for 1 hr followed by FLT3 ligand addition for 5 mins by Western blot analysis; assay type: cell-based, HEK-293T
[18] = tested on: Receptor-type tyrosine-protein kinase FLT3 (Homo sapiens), P36888 [D835Y]
[19] = molecular target: Dual specificity mitogen-activated protein kinase kinase 1 (Homo sapiens) (UniProt Q02750); assay: Inhibition of human MEK1 at 0.1 uM relative to control
[20] = Volume of distribution at steady state in Sprague-Dawley rat at 2 mg/kg, iv; assay type: ADME, organism-based; settings: in vivo, read-out: Vdss
[21] = AUC (0 to infinity) in Sprague-Dawley rat at 10 mg/kg, po; assay type: ADME, organism-based; design: dose 10 mg/kg, time infinity, route oral; settings: in vivo
[22] = molecular target: Aurora kinase C (Homo sapiens) (UniProt Q9UQB9); assay: Inhibition of human AURKC at 0.1 uM relative to control
[23] = molecular target: Vascular endothelial growth factor receptor 1 (Homo sapiens) (UniProt P17948); assay: Inhibition of human FLT1 at 0.1 uM relative to control
[24] = tested on: Receptor-type tyrosine-protein kinase FLT3 (Homo sapiens), P36888 [D835V]
MV4-11 = assay: Antitumor activity against human MV4-11 cells xenografted in nude mouse assessed as tumor regression at 25 mg/kg, po qd administered on day 8 to 12 measured during 48 days post last dose; assay type: functional, organism-based
[25] = molecular target: Angiopoietin-1 receptor (Homo sapiens) (UniProt Q02763); assay: Inhibition of human TEK at 0.1 uM relative to control
[26] = molecular target: Aurora kinase B (Homo sapiens) (UniProt Q96GD4); assay: Inhibition of human AURKB at 0.1 uM relative to control
[27] = molecular target: Mast/stem cell growth factor receptor Kit (Homo sapiens) (UniProt P10721); assay: Inhibition of human KIT at 0.1 uM relative to control

## CCc1cc(NC(=O)Nc2ccc(-c3cnc(Nc4cc(N5CCN(CC)CC5)nc(C)n4)s3)cc2)no1
[1]
  inhibition: 46%
[2]
  IC50: 38 nM
[3]
  inhibition: 94%
[4]
  IC50: 10 nM
U-937
  GI50: 1100 nM
[5]
  inhibition: 21%
[6]
  inhibition: 0%
[7]
  bioavailability: 20%
[8]
  inhibition: 61%
[9]
  inhibition: 91%
[10]
  inhibition: 80%
[11]
  inhibition: 9%
[12]
  GI50: 190 nM
[13]
  inhibition: 96%
[14]
  inhibition: 46%
[15]
  GI50: 110 nM
[16]
  inhibition: 21%
[17]
  IC50: 10 nM
[18]
  GI50: 6 nM
[19]
  inhibition: 41%
[20]
  Vd: 8.2 L/kg
[21]
  AUC(0-inf): 1080 ng·h/mL
[22]
  inhibition: 45%
[23]
  inhibition: 44%
[24]
  GI50: 4 nM
MV4-11
  Activity: Active
[25]
  inhibition: 61%
[26]
  inhibition: 85%
[27]
  inhibition: 64%

Reference: ChEMBL document CHEMBL3593229, “Identification of a potent 5-phenyl-thiazol-2-ylamine-based inhibitor of FLT3 with activity against drug resistance-conferring point mutations” (Eur J Med Chem, 2015)
